Data set [1] deals with Tyrosine-protein kinase JAK1 (Homo sapiens, UniProt P23458). Kind of data set: Inhibition of JAK1 (unknown origin) using Kinase/Tyr 6 peptide as substrate incubated for 1 hrs in presence of ATP by fluorescence microplate reader analysis.
Data set [2] concerns the target Tyrosine-protein kinase JAK2 (Homo sapiens, UniProt O60674).
Description: Inhibition of JAK2 (unknown origin) using Kinase/Tyr 6 peptide as substrate incubated for 1 hrs in presence of ATP by fluorescence microplate reader analysis
In data set [3] the target is T1, Tyrosine-protein kinase JAK3 (Homo sapiens, UniProt P52333).
T1 sequence (P52333 whole entry): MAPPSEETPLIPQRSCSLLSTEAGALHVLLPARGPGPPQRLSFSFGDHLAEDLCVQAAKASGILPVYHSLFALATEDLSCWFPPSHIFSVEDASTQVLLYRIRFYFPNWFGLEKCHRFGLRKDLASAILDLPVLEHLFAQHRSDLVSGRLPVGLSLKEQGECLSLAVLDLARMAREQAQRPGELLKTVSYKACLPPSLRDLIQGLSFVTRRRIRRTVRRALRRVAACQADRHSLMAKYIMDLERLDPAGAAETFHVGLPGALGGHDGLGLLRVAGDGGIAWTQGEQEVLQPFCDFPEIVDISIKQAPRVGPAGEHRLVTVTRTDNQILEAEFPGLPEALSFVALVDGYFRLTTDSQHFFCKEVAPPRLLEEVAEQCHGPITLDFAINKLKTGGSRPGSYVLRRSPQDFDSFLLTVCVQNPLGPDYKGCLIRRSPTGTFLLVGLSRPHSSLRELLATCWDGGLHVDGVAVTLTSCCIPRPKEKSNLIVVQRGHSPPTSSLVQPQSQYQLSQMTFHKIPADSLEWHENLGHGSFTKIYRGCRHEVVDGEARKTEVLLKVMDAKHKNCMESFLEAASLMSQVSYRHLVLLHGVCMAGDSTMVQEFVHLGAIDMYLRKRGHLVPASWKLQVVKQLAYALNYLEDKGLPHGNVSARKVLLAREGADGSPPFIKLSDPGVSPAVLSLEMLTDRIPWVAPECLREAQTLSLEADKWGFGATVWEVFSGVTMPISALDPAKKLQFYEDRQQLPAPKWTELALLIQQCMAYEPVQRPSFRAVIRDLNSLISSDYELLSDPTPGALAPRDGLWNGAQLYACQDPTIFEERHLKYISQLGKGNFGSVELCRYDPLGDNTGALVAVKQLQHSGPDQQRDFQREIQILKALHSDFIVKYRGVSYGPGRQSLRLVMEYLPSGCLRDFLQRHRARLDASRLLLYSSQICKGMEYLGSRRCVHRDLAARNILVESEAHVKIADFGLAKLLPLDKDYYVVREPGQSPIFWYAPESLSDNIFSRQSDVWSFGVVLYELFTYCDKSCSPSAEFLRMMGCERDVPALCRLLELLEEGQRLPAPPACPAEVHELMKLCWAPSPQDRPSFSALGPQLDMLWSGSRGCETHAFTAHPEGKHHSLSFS
Description: Inhibition of JAK3 (unknown origin) using Kinase/Tyr 6 peptide as substrate incubated for 1 hrs in presence of ATP by fluorescence microplate reader analysis

The subject of data set [4] is Mus musculus. Kind of data set: Antiinflammatory activity in DSS-induced acute enteritis C57BL mouse model assessed as suppression of DSS induced weight loss at 100 mg/kg, po administered daily and measured upto 11 days relative to control. The format is functional. The note with it: time <= 11 day.
Data set [5] deals with Mus musculus. Kind of data set: Antiinflammatory activity in DSS-induced acute colitis C57BL/6 mouse model assessed as reduction in inflammatory cell infiltration in colon by measuring histopathological score at 100 mg/kg, po by H and E staining based analysis. The format is functional, organism-based.
Data set [6] deals with Mus musculus. In words: Antiinflammatory activity in DSS-induced acute colitis C57BL/6 mouse model assessed as reduction in colon villi integrity in colon by measuring histopathological score at 100 mg/kg, po by H and E staining based analysis. The format is functional, organism-based.
Data set [7] has as its system Mus musculus. Kind of data set: Antiinflammatory activity in DSS-induced acute colitis C57BL/6 mouse model assessed as reduction in intestinal edema in colon by measuring histopathological score at 100 mg/kg, po by H and E staining based analysis. Format: functional, organism-based.
Data set [8] deals with Mus musculus. In words: Antiinflammatory activity in DSS-induced acute colitis C57BL/6 mouse model assessed as reduction in number of goblet cells in colon by measuring histopathological score at 100 mg/kg, po by H and E staining based analysis. The format is functional, organism-based.
Data set [9] has as its system Mus musculus. In words: Antiinflammatory activity in DSS-induced acute colitis C57BL/6 mouse model assessed as reduction in lamina propria damage in colon by measuring histopathological score at 100 mg/kg, po by H and E staining based analysis. Format: functional, organism-based.
Data set [10] relates to Mus musculus. In words: Anti-inflammatory activity in TNBS induced IBD BALB/c mouse model assessed as reduction in weight by measuring disease activity index score at 100 mg/kg via oral gavage administered daily for 12 days measured daily. The following applies: time 12.0 day. Format: functional, organism-based.
Data set [11] deals with Mus musculus. In words: Anti-inflammatory activity in TNBS induced IBD BALB/c mouse model assessed as reduction in stool softness by measuring disease activity index score at 100 mg/kg via oral gavage administered daily for 12 days. Format: functional, organism-based. The note with it: time 12.0 day.
The test system of data set [12] is Mus musculus. In words: Anti-inflammatory activity in TNBS induced IBD BALB/c mouse model assessed as reduction in bloody stool by measuring disease activity index score at 100 mg/kg via oral gavage administered daily for 12 days. The following applies: time 12.0 day. Format: functional, organism-based.
In data set [13] the target is Nuclear factor NF-kappa-B complex (Homo sapiens, UniProt P19838+Q00653+Q04206). Kind of data set: Inhibition of NF kappa B activation (unknown origin). The format is protein-complex assay.
A short description of data set [14]: Cytotoxicity against human THP1-Dual cells assessed as inhibition of cell growth measured after 24 hrs by CCK-8 method. The format is toxicity, cell-based.

Activity calls are given as the source filed them. The rule behind the calls is not given here.

Sequence of Tyrosine-protein kinase JAK1 (P23458 whole entry): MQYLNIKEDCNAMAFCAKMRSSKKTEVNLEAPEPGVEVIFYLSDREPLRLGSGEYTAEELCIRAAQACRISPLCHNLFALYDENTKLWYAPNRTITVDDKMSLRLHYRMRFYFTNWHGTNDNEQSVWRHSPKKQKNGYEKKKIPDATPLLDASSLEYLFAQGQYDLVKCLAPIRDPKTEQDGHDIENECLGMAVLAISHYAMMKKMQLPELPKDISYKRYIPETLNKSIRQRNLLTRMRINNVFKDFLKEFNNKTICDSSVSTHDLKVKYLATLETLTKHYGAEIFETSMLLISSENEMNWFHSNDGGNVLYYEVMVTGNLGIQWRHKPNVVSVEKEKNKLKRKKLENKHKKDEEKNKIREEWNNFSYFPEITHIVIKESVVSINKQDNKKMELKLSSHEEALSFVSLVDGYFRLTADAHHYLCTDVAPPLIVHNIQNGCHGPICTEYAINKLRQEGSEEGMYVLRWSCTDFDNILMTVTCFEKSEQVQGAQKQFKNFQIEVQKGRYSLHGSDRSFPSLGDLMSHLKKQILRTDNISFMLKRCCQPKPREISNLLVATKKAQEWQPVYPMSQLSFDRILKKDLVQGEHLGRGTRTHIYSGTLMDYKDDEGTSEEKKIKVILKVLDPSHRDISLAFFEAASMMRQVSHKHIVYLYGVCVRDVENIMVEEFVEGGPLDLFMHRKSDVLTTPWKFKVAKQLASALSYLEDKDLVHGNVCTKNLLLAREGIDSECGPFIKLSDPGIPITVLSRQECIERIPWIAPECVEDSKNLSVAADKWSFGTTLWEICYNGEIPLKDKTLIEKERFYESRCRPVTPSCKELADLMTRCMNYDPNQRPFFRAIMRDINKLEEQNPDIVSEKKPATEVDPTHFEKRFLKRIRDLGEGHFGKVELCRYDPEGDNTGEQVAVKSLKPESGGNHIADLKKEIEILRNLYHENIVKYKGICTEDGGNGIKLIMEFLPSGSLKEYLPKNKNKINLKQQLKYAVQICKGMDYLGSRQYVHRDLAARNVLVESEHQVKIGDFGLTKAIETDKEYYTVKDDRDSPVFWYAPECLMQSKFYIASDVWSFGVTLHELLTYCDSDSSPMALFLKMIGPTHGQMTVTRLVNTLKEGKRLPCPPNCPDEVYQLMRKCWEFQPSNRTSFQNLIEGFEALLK
Sequence of Tyrosine-protein kinase JAK2 (O60674 whole entry): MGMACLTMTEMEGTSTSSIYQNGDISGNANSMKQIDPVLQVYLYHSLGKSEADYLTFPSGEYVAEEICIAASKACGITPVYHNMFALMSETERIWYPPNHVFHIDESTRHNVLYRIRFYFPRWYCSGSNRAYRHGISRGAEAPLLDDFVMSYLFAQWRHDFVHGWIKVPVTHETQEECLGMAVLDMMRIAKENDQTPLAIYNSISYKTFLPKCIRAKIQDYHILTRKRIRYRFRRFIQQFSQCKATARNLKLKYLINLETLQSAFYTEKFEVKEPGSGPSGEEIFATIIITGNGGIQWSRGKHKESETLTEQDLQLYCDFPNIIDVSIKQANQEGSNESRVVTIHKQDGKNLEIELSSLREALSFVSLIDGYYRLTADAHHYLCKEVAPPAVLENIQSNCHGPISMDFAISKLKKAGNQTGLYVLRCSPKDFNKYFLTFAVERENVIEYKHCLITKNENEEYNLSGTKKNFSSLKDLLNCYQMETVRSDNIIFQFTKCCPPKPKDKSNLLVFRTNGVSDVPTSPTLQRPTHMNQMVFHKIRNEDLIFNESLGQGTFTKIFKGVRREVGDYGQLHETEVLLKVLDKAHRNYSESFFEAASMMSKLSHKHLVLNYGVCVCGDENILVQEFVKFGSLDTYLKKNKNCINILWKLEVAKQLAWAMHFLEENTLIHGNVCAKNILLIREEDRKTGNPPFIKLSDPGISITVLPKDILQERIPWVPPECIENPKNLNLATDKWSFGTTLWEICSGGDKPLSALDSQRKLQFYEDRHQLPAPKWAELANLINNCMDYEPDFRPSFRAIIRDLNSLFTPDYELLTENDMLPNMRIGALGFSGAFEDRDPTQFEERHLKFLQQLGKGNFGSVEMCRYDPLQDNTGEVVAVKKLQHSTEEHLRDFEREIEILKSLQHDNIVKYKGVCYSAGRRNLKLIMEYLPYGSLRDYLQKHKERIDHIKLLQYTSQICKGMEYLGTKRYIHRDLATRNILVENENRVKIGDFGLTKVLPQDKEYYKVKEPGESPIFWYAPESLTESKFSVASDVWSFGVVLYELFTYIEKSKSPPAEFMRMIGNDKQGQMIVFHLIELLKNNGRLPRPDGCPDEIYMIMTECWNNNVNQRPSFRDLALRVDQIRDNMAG
Sequence of Nuclear factor NF-kappa-B complex (P19838 1-433 limits assumed): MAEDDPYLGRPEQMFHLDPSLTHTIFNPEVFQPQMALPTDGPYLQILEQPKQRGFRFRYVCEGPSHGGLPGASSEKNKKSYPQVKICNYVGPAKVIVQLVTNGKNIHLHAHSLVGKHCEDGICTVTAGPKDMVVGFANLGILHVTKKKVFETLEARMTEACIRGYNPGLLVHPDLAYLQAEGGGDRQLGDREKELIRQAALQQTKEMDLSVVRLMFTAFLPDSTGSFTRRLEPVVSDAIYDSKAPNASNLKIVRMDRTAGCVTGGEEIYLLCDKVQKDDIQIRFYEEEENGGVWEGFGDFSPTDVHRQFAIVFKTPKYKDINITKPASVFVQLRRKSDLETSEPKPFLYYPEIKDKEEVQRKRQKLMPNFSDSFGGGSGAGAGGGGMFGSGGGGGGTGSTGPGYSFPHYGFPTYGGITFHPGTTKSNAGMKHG
Sequence of Nuclear factor NF-kappa-B complex (Q00653 1-454 limits assumed): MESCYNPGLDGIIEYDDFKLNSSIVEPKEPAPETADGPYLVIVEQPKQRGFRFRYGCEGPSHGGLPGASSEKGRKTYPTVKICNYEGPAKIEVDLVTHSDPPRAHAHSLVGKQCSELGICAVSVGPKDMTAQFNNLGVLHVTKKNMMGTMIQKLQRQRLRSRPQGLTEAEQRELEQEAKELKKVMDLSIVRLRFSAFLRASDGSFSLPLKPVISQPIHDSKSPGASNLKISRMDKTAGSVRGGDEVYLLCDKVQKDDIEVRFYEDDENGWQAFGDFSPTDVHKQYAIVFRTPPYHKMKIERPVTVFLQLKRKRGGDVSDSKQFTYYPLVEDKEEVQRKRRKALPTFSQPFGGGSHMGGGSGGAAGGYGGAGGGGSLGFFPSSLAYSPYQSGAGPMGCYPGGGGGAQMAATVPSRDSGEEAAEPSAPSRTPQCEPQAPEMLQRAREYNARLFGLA
Sequence of Nuclear factor NF-kappa-B complex (Q04206 whole entry): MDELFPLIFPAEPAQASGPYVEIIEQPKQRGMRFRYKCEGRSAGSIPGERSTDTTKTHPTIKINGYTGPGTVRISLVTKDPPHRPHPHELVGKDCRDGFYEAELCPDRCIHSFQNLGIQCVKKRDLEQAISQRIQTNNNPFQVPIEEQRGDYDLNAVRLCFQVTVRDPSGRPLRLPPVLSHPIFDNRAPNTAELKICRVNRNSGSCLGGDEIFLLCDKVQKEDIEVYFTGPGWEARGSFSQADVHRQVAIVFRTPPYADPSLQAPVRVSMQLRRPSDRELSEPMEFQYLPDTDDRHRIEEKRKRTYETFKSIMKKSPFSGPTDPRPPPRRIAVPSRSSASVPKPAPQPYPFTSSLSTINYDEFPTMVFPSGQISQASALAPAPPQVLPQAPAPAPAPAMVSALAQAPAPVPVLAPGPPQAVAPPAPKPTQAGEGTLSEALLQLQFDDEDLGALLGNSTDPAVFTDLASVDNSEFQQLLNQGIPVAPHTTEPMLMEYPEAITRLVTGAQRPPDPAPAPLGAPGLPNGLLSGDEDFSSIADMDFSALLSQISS

Regarding `Cc1nc2cnc3ccc(-c4cc(F)c(O)c(F)c4)cc3c2n1C1CCN(C)CC1`, the IC50 is 19.4 nM in data set [1], greater than 500 nM in data set [2] and greater than 500 nM in [3].

As for `Cc1nc2cnc3ccc(-c4ccc(O)cc4F)cc3c2n1C1CCN(C)CC1`, the IC50 in [1] is 237 nM; in data set [3], greater than 500 nM.

For the compound `Cc1nc2cnc3ccc(-c4ccc(O)c(C(F)(F)F)c4)cc3c2n1C1CCN(C)CC1`, the half-maximal inhibitory concentration (IC50) in [1] and in [3] was greater than 500 nM in each case.

In the case of `Cc1nc2cnc3ccc(-c4ccc(O)cc4Cl)cc3c2n1C1CCN(C)CC1`, the IC50 is 386 nM in data set [1] and greater than 500 nM in data set [3].

Take `Cc1nc2cnc3ccc(-c4cc(Cl)c(O)c(Cl)c4)cc3c2n1[C@H]1CC[C@H](O)CC1`: the 50% inhibitory concentration (IC50) turned out to be 9.9 nM in data set [1] and 20.2 nM in data set [3].

As for `Cc1cc(-c2ccc3ncc4nc(C)n(C5CCN(C)CC5)c4c3c2)cc(C)c1O`, the IC50 in data set [1] is 100 nM; in data set [3], greater than 500 nM.

Regarding `Cc1nc2cnc3ccc(-c4cc(F)c(O)c(Cl)c4)cc3c2n1C1CCN(C)CC1`, the results for the half-maximal inhibitory concentration (IC50) in [1], in [2] and in data set [3] were 11.9 nM, 136 nM and 127 nM, respectively.

As for `Cc1nc2cnc3ccc(-c4ccc(O)c(F)c4)cc3c2n1C1CCN(C)CC1`, the half-inhibitory concentration (IC50) in data set [1] is 30 nM; in data set [2], greater than 500 nM; in [3], greater than 500 nM.

Take `Cc1nc2cnc3ccc(-c4ccc5c(c4)OCCO5)cc3c2n1C1CCN(C)CC1`: the IC50 in data set [1] is greater than 500 nM.

Consider `Cc1nc2cnc3ccc(-c4cc(Cl)c(O)c(Cl)c4)cc3c2n1C1CCCN(C)C1` (stereo not drawn), for which the half-maximal inhibitory concentration (IC50) amounted to 6.6 nM in [1] and 4.9 nM in data set [3].

As to `Cc1cc(-c2ccc3ncc4nc(C)n(C5CCN(C)CC5)c4c3c2)ccc1O`, the IC50 in data set [1] is 435 nM; in data set [3] it was greater than 500 nM.

As for `Cc1nc2cnc3ccc(-c4cc(Cl)c(O)c(Cl)c4)cc3c2n1[C@H]1CC[C@H](N(C)C)CC1`, the half-inhibitory concentration (IC50) in data set [1] came to 16.7 nM; in data set [3], 63 nM.

Consider `Cc1nc2cnc3ccc(-c4ccc(O)c(C#N)c4)cc3c2n1C1CCN(C)CC1`, for which the concentration for half-maximal inhibition (IC50) was 236 nM in [1] and greater than 500 nM in [3].

As for `Cc1nc2cnc3ccc(-c4cc(Cl)cc(Cl)c4)cc3c2n1C1CCN(C)CC1`, the concentration for half-maximal inhibition (IC50) in data set [1] and in data set [3] was greater than 500 nM in each case.

As to `Cc1nc2cnc3ccc(-c4ccc(N5CCOCC5)cc4)cc3c2n1C1CCN(C)CC1`, in [1], the IC50 is greater than 500 nM.

On to `Cc1nc2cnc3ccc(-c4cc(Cl)c(O)c(Cl)c4)cc3c2n1C1CCOCC1`, for which the IC50 in data set [1] came to 6.8 nM; in data set [2], 22.6 nM; in [3], 20.8 nM.

In the case of `Cc1nc2cnc3ccc(-c4ccc(O)c(Cl)c4)cc3c2n1C1CCN(C)CC1`, the IC50 in data set [1] is 42.3 nM; in data set [3], greater than 500 nM.

Take `COc1cc(-c2ccc3ncc4nc(C)n(C5CCN(C)CC5)c4c3c2)ccc1O`: the IC50 is 776 nM in data set [1] and greater than 500 nM in data set [3].

In the case of `Nc1ccc(O)c(C(=O)O)c1` [MESALAMINE], the Activity in the data set with Mus musculus [4] was 11.69%. The result with Mus musculus [5], with Mus musculus [6], in the data set on Mus musculus [7], in the data set on Mus musculus [8], with Mus musculus [9] and in the data set with Mus musculus [10] was Active. Further, the outcome in the data set with Mus musculus [11] and with Mus musculus [12] was Active.

`O=C(c1ccccc1)c1ccc2nc(NC(=O)c3csc(C4CCN(c5ncnc6ccsc56)CC4)n3)[nH]c2c1` registered an IC50 in data set [13] of 200 nM.

Consider `Cc1nc2cnc3ccc(-c4ccc(F)c(O)c4)cc3c2n1C1CCN(C)CC1`, for which the 50% inhibitory concentration (IC50) in [1] was greater than 500 nM.

In the case of `Cc1nc2cnc3ccc(-c4ccccc4O)cc3c2n1C1CCN(C)CC1`, the concentration for half-maximal inhibition (IC50) in data set [1] was greater than 500 nM.

Turning to `Cc1nc2cnc3ccc(-c4cc(Cl)c(O)c(Cl)c4)cc3c2n1[C@@H]1CCCN(C)C1`, the figures for the IC50 in data set [1], in data set [2] and in data set [3] were 2.6 nM, 13.5 nM and 3.2 nM, respectively. For the same compound, in data set [14], the IC50 at 24 h was 2000 nM.

For `Cc1nc2cnc3ccc(-c4cc(Cl)c(O)c(Cl)c4)cc3c2n1[C@H]1CCCN(C)C1`, the 50% inhibitory concentration (IC50) came out at 5.5 nM in [1] and 19.6 nM in data set [3].

For `Cc1nc2cnc3ccc(-c4ccc(O)cc4)cc3c2n1C1CCN(C)CC1`, the results for the IC50 in data set [1] and in [3] were 560 nM and greater than 500 nM, respectively.

For `Cc1nc2cnc3ccc(-c4cc(Cl)c(O)c(Cl)c4)cc3c2n1C1CCN(CN(C)C)CC1`, the IC50 in data set [1] amounted to 7.4 nM; in data set [3], 62 nM.

Turning to `Cc1nc2cnc3ccc(-c4cc(Cl)c(O)c(Cl)c4)cc3c2n1[C@H]1CC[C@H](CO)CC1`, the 50% inhibitory concentration (IC50) was determined as 7.2 nM in data set [1], 12.6 nM in [2] and 15.4 nM in [3].

For orientation: IC50 means the concentration that gives 50% inhibition.

Source of the values: ChEMBL document CHEMBL5113519, “Discovery of Novel Imidazo[4,5-c]quinoline Derivatives to Treat Inflammatory Bowel Disease (IBD) by Inhibiting Multiple Proinflammatory Signaling Pathways and Restoring Intestinal Homeostasis” (J Med Chem, 2022).
